From patent US8461328B2, “Tricyclic heterocyclic compounds, compositions and methods of use thereof” (Genentech, Inc., priority 2010, dated 2013)

Assays:
Assay type in all cases: biochemical
JAK2 = target: T1, JAK2 (Homo sapiens, UniProt O60674); experiment: JAK2 inhibition (Table 4); settings: read-out: JAK2 Ki
T1 construct: made in house; host or cells: SF9 insect cells (baculovirus)

JAK1 = target: T2, JAK1 (Homo sapiens, UniProt P23458); experiment: JAK1 inhibition (Table 4); settings: read-out: JAK1 Ki
T2 construct: made in house; host or cells: SF9 insect cells (baculovirus)

JAK3 = target: T3, JAK3 (Homo sapiens, UniProt P52333); experiment: JAK3 inhibition (Table 4); settings: read-out: JAK3 Ki
T3 construct: made in house; host or cells: SF9 insect cells (baculovirus)

TYK2 = target: T4, TYK2 (Homo sapiens, UniProt P29597); experiment: TYK2 inhibition (Table 4)
T4 construct: made in house; host or cells: SF9 insect cells (baculovirus)
T4 sequence (P29597 873-1187): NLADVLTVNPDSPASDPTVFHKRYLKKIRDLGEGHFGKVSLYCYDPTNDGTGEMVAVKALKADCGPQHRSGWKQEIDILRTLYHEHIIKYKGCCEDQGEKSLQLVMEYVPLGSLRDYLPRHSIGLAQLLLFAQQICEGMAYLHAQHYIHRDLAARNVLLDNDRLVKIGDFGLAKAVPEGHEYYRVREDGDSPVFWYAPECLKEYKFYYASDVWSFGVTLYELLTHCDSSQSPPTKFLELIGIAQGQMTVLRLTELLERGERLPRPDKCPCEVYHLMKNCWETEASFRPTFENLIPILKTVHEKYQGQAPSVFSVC

T3 sequence (P52333 783-1124): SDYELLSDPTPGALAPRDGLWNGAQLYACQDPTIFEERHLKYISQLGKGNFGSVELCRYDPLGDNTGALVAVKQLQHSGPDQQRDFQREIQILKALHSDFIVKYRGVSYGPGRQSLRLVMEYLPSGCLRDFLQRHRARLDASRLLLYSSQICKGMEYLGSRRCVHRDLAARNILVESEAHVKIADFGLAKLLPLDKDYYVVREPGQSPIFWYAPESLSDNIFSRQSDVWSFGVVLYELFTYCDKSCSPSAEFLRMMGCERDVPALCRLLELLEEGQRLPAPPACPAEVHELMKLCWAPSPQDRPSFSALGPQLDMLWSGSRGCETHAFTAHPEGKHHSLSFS
T2 sequence (P23458 852-1154): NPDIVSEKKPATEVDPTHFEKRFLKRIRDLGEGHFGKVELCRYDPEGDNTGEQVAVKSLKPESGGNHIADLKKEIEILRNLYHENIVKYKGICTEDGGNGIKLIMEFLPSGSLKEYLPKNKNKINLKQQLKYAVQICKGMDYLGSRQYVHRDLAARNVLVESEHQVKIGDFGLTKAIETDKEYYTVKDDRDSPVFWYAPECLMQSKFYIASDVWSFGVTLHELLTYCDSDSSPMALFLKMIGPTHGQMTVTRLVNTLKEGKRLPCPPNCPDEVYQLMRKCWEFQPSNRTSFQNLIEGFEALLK
T1 sequence (O60674 812-1132): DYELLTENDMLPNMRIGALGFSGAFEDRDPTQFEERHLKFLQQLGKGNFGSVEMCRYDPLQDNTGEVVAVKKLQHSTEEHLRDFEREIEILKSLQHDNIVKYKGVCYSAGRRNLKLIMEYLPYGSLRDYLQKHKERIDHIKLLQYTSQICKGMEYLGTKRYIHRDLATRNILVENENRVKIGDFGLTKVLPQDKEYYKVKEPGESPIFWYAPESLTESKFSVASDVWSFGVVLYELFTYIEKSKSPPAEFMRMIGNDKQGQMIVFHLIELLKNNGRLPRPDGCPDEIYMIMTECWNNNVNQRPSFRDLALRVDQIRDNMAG

N#CCCn1cc2c(n1)CCC(n1cnc3cnc4[nH]ccc4c31)C2 (racemic) [Example 991, 3-[5-(6H-1,3,5,6-Tetraaza-as-indacen-1-yl)-4,5,6,7-tetrahydro-indazol-2-yl]-propionitrile]
Ki (JAK2): 11.7 nM
Ki (JAK1): 9.26 nM
Ki (JAK3): 109 nM
Ki (TYK2): 58.6 nM

Cc1nc2cnc3[nH]ccc3c2n1[C@H]1CC[C@H](N)CC1 [Example 273, 4-(2-Methyl-6H-1,3,5,6-tetraaza-as-indacen-1-yl)-cyclohexylamine]
Ki (JAK2): 18.9 nM
Ki (JAK1): 5.29 nM
Ki (JAK3): 19.2 nM
Ki (TYK2): 48.4 nM

FCCN1CCC(n2cnc3cnc4[nH]ccc4c32)CC1 [Example 212, 1-[1-(2-Fluoro-ethyl)-piperidin-4-yl]-1,6-dihydro-1,2,3,5,6-tetraaza-as-indacene]
Ki (JAK2): 3.21 nM
Ki (JAK1): 2.17 nM
Ki (JAK3): 59 nM
Ki (TYK2): 11.6 nM

C#CCCN1CCC(n2c([C@@H](C)O)nc3cnc4[nH]ccc4c32)CC1 [Example 871, (R)-1-[1-(1-But-3-ynyl-piperidin-4-yl)-1,6-dihydro-1,3,5,6-tetraaza-as-indacen-2-yl]-ethanol]
Ki (JAK2): 290 nM
Ki (JAK1): 59.7 nM
Ki (JAK3): 177 nM
Ki (TYK2): 1170 nM

CC(O)c1nc2cnc3[nH]ccc3c2n1C1CCN(Cc2cccnc2)CC1 (racemic) [Example 292, 1-[1-(1-Pyridin-3-ylmethyl-piperidin-4-yl)-1,6-dihydro-1,3,5,6-tetraaza-as-indacen-2-yl]-ethanol]
Ki (JAK2): 26.5 nM
Ki (JAK1): 2.92 nM
Ki (JAK3): 7.9 nM
Ki (TYK2): 218 nM

CCN1CC[C@@H](n2c(CCNS(=O)(=O)C(C)C)nc3cnc4[nH]ccc4c32)[C@@H](F)C1 [Example 810, Propane-2-sulfonic acid {2-[1-((3S,4R)-1-ethyl-3-fluoro-piperidin-4-yl)-1,6-dihydro-1,3,5,6-tetraaza-as-indacen-2-yl]-ethyl}-amide]
Ki (JAK2): 44.7 nM
Ki (JAK1): 5.72 nM
Ki (JAK3): 181 nM
Ki (TYK2): 385 nM

CN(C)C(=O)N[C@H]1CC[C@H](n2cnc3cnc4[nH]ccc4c32)CC1 [Example 603, Trans 1,1-dimethyl-3-[4-(6H-1,2,3,5,6-tetraaza-as-indacen-1-yl)-cyclohexyl]-urea]
Ki (JAK2): 20.8 nM
Ki (JAK1): 9.76 nM
Ki (JAK3): 237 nM
Ki (TYK2): 87 nM

CC1CC(n2cnc3cnc4[nH]ccc4c32)CCN1Cc1ccccc1 (racemic) [Example 127, 1-(1-Benzyl-2-methyl-piperidin-4-yl)-1,6-dihydro-1,2,3,5,6-tetraaza-as-indacene]
Ki (JAK2): 1.82 nM
Ki (JAK1): 2.6 nM
Ki (JAK3): 8.46 nM
Ki (TYK2): 26.1 nM

CC(O)c1nc2cnc3[nH]ccc3c2n1C1CC2CCC(C1)N2 (stereo not drawn) [Example 919, 1-[1-(8-Aza-bicyclo[3.2.1]oct-3-yl)-1,6-dihydro-1,3,5,6-tetraaza-as-indacen-2-yl]-ethanol]
Ki (JAK2): 437 nM
Ki (JAK1): 10.6 nM
Ki (JAK3): 476 nM
Ki (TYK2): 264 nM

N#Cc1ccc(N[C@H]2CC[C@H](n3cnc4cnc5[nH]ccc5c43)CC2)nc1 [Example 176, Trans 6-[4-(6H-1,2,3,5,6-Tetraaza-as-indacen-1-yl)-cyclohexylamino]-nicotinonitrile]
Ki (JAK2): 7.05 nM
Ki (JAK1): 2.16 nM
Ki (JAK3): 95.8 nM
Ki (TYK2): 24.3 nM

CC(=O)N1CCC(N[C@H]2CC[C@H](n3cnc4cnc5[nH]ccc5c43)CC2)CC1 [Example 555, trans 1-{4-[4-(6H-1,3,5,6-Tetraaza-as-indacen-1-yl)-cyclohexylamino]-piperidin-1-yl}-ethanone]
Ki (JAK2): 276 nM
Ki (JAK1): 33 nM
Ki (JAK3): 491 nM
Ki (TYK2): 302 nM

COCCNC1CCC(n2c(C)nc3cnc4[nH]ccc4c32)C1 (racemic) [Example 628, Racemic trans (2-methoxy-ethyl)-[3-(2-methyl-6H-1,2,3,5,6-tetraaza-as-indacen-1-yl)-cyclopentyl]-amine]
Ki (JAK2): 375 nM
Ki (JAK1): 43.1 nM
Ki (JAK3): 798 nM
Ki (TYK2): 974 nM
